Assay results as given in patent US20050255493A1, “Molecular targeting of the IGF-1 receptor” (priority 2002, published 2005).

How the values were obtained:
IGF1R mRNA = assay: Oligonucleotide scanning array hybridisation with labelled transcript; assay type: binding, human; details: scanning array, peak 4 region (FIG. 11B)
Description: Scanning arrays complementary to the region of the IGF1R mRNA from position 537-685 were prepared using the standard techniques described in Southern E. M. et al., Nucleic Acids Res., 1994, 22(8): 1368-1373; and Sohail, M. and Southern, E. M. “Using oligonucleotide scanning arrays to find effective antisense reagents”, Methods in Molecular Biology, vol. 170: DNA Arrays: Methods and Protocols, Ed J. B. Rampal, Humana Press Inc., Totowa, N.J.
The scanning arrays comprise sets of oligonucleotides of various lengths. A series of oligonucleotides, complementary to the target mRNA, is made by sequential coupling of nucleotides to a solid surface. The DNA synthesis reagents are applied to a confined area on the surface of the solid support using a mask. The mask is shifted along the surface after each round of coupling, resulting in a series of oligonucleotides each complementary to a region of the target sequence.
• 2. Remove 1 μL for quantitation (see below). • 3. Remove unincorporated label by Sephadex® G25 column chromatography (see Note 11). • 4. Save 1 μL of the purified transcript for quantitation (see below). • 5. Check the integrity of the transcript by denaturing polyacrylamide gel electrophoresis (10). • 6. Add 10 μL of the scintillation fluid to the samples saved in Steps 2 and 4. • 7. Mix by vortexing and count the samples in a scintillation counter for 1 min. • 8. Calculate the percent incorporation: [formula] • 9. Calculate the amount of RNA made: [formula] Hybridisation to Arrays Made on Polypropylene • 1. Place the array in the hybridisation tube, coiling it in a spiral. • 2. Dilute the radiolabelled transcript in an appropriate volume (10-20 mL depending upon the size of the array and the hybridisation tube) of hybridisation buffer. The mix should cover the array along the length of the tube. • 3. Place items 1 and 2 in the oven at desired temperature for 30 min. Also put approximately 100 mL of the hybridisation buffer in the oven: this is to be used to wash the array at the end of hybridisation. • 4. Pour the hybridisation mix into the tube containing the array and hybridise for 3-4 h. • 5. Remove the hybridisation mix. Briefly wash the array with the hybridisation buffer from Step 3, air dry, cover with cling film and expose to a storage phosphor screen for 16-20 h (see Note 12). • 6. Scan the screen on PhosphorImager or STORM and analyse the image using xvseq (see below). Hybridisation to Arrays Made on Glass • 1. Clean the non-array glass plate with acetone and ethanol to ensure it is grease-free and siliconise it by treatment with dimethyl dichlorosilane solution and place it in lidded box. Also place moist paper towel in the box. • 2. Dilute the radiolabelled transcript in an appropriate volume of the hybridisation buffer (for example, for an array of 250 mm×50 mm use 500-750 μL). • 3. Place items 1 and 2 in an incubator at desired temprature for 30 min. Also put approximately 100 mL of the hybridisation buffer in the oven: this is to be used to wash the array at the end of hybridisation. • 4. Using a micropipette, pipette the hybridisation mix in a line evenly along the length of the non-array glass plate, avoiding formation of air bubbles. • 5. Starting at one end, carefully place the scanning array (face down) on top of the hybridisation mix. The mix will spread out and form a thin film between the two plates. Incubate for 3-4 h. • 6. Separate the plates from each other and wash the array plate with hybridisation buffer to remove unbound mix. Drain the plate, air dry, cover with cling film and expose to a storage phosphor screen for 16-20 h. • 7. Scan the screen on PhosphorImager or STORM and analyse the image using xvseq (see below). Alternative Hybridisation Protocol for Glass or Polypropylene • 1. Assemble with clips the array plate (or polypropylene array pasted with PhotoMount™ on a glass plate) and the non-array plate, using rubber tubing as spacers on two sides. • 2. […]

A549 cells = assay: Anchorage-independent growth of A549 cells (polyHema plates, MTS assay); assay type: cell-based, human; details: 200 nM duplex, MTS assay 10 days later
Description: FIG. 12 illustrates growth of A549 cells under anchorage-independent conditions, in 24-well plates coated with polyHema to prevent adherence. Cells were transfected with 200 nM duplex, re-seeded the next day into polyHema-coated plates at 500 cells/well. MTS assay performed 10 days later. UT=untransfected. **p<0.01 for comparison of R4 with Scr.

“R4: RNAi duplex CAAUGAGUACAACUACCGCTT / TTGUUACUCAUGUUGAUGGCG, SEQ ID NO:30 (CAAUGAGUACAACUACCGCNN; second strand not cited, chemistry not fully specified)” was tested, and the “Difference in hybridization intensity between the 19mer ASOs equivalent to R4 and R5” value (IGF1R mRNA) was ~6.5 fold and the “Anchorage-independent growth” value (A549 cells) was “significant inhibition of anchorage-independent growth”.
